According to US10759721B2, “Deuterated CFTR potentiators” (Vertex Pharmaceuticals (Europe) Limited, priority 2015, dated 2020):
Where two headings read alike, the source gives them in different places.

Legend:
[1] = target: T1, human CYP3A4 Supersomes (Homo sapiens, UniProt P08684); experiment: Metabolic stability in human CYP3A4 Supersomes; format: in vitro ADME; conditions: for average increase in t1/2 / apparent intrinsic clearance ratio: human CYP3A4 Supersomes; for Clint, app rCYP: human CYP3A4 Supersomes 50 pmol/mL, 0.25 μM test compound, CL int = (0.693/in vitro t1/2)(mL incubation volume/pmol P450)
T1 construct: purchased BD Biosciences
T1 sequence (P08684 whole entry): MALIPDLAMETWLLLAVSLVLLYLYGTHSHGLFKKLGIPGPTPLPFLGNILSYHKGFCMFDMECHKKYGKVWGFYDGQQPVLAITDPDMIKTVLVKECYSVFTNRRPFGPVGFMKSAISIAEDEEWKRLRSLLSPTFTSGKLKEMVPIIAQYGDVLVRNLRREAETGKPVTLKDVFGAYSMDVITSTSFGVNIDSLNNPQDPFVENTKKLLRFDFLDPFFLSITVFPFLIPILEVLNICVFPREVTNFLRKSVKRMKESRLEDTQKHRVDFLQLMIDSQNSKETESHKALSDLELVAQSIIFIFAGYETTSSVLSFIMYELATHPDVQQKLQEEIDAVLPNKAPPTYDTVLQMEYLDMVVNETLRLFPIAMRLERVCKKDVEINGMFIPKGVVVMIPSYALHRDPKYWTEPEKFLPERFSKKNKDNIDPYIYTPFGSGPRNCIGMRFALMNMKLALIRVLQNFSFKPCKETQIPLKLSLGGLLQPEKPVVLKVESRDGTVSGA
Protocol: (§1) Stock solutions (7.5 mM) of Compound 100 and Compound A were prepared in DMSO. The 7.5 mM stock solutions were diluted to 12.5 μM in acetonitrile (ACN). The human CYP3A4 Supersomes™ (2000 pmol/mL, purchased from BD Biosciences™) were diluted to 62.5 pmol/mL in 0.1 M potassium phosphate buffer, pH 7.4, containing 3 mM MgCl2. The diluted supersomes were added to wells of a 96-well polypropylene plate in triplicate. A 10 μL aliquot of the 12.5 μM test compound was added to the supersomes and the mixture was pre-warmed for 10 minutes. Reactions were initiated by addition of pre-warmed NADPH solution. The final reaction volume was 0.5 mL and contained 50 pmol/mL CYP3A4 Supersomes™, 0.25 μM test compound, and 2 mM NADPH in 0.1 M potassium phosphate buffer, pH 7.4, and 3 mM MgCl2. The reaction mixtures were incubated at 37° C., and 50 μL aliquots were removed at 0, 3, 7, 10, 20 and 30 minutes and added to 96-well plates which contained 125 μL of ice-cold ACN with internal standard to stop the reactions. The plates were stored at 4° C. for 20 minutes after which 75 μL of water was added to the wells of the plate before centrifugation to pellet precipitated proteins. Supernatants were transferred to another 96-well plate and analyzed for amounts of parent remaining by LC-MS/MS using an AB Sciex QTrap 5500 mass spectrometer.
(§2) The in vitro half-lives (t1/2 values) for test compounds were calculated from the slopes of the linear regression of LN (% parent remaining) vs incubation time relationship: in vitro t1/2=0.693/k, where k=−[slope of linear regression of LN (% parent remaining) vs incubation time].
as §1, with “Compound 120” for “Compound 100”, “Compound B” for “Compound A”

[2] = target: T2, CYP3A4 (Homo sapiens, UniProt P08684); experiment: Metabolic stability in human CYP3A4 Supersomes; format: in vitro ADME; conditions: recombinant human CYP3A4 Supersomes, pH 7.4, human CYP3A4 Supersomes, read-out: calculated average half-life
T2 construct: purchased BD Biosciences
T2 sequence (P08684 whole entry): as above
Protocol: as §1, §2
as §1, with “Compound 120” for “Compound 100”, “Compound B” for “Compound A”

[3] = system: patients with cystic fibrosis carrying at least one copy of the G551D-CFTR mutation; conditions: phase III trials; cited from earlier work

Structure (SMILES)	Clint, app rCYP ([1]; Table 2)	half-life at 0.25 μM ([2]; text of Example 3)	Clint, app rCYP ([1]; Table 3)	half-life at 0.25 μM ([2]; Example 4)	further results
CC(C)(C)c1ccc(NC(=O)c2c[nH]c3ccccc3c2=O)cc1O [Compound A, N-(4-(tert-butyl)-3-hydroxyphenyl)-4-oxo-1,4-dihydroquinoline-3-carboxamide, reference compound]	0.46 ± 0.02 µL/min/pmol	15.1 min			
CC(C)(C)c1cc(C(F)(F)F)c(NC(=O)c2c[nH]c3ccccc3c2=O)cc1O [Compound B, N-(4-(tert-butyl)-5-hydroxy-2-(trifluoromethyl)phenyl)-4-oxo-1,4-dihydroquinoline-3-carboxamide, reference compound]			0.48 ± 0.06 µL/min/pmol	14.5 min	
CC(C)(C)c1cc(C(C)(C)C)c(NC(=O)c2c[nH]c3ccccc3c2=O)cc1O [VX-770, N-(2,4-di-tert-butyl-5-hydroxyphenyl)-4-oxo-1,4-dihydroquinoline-3-carboxamide]					improvement in lung function and other key indicators of the disease (sweat chloride levels, likelihood of pulmonary exacerbations, body weight) [3]: marked levels of improvement

More lines, main results first:

Clint, app rCYP ([1]; Table 2)	half-life at 0.25 μM ([2]; text of Example 3)	Clint, app rCYP ([1]; Table 3)	half-life at 0.25 μM ([2]; Example 4)	Structure (SMILES)	further results
0.26 ± 0.00 µL/min/pmol	26.5 min			[2H]C([2H])([2H])C(c1ccc(NC(=O)c2c[nH]c3ccccc3c2=O)cc1O)(C([2H])([2H])[2H])C([2H])([2H])[2H] [Compound 100, N-(3-Hydroxy-4-(2-(methyl-d3)propan-2-yl-1,1,1,3,3,3-d6)phenyl)-4-oxo-1,4-dihydroquinoline-3-carboxamide]	average increase in t1/2 ([1]; Compound 100 relative to Compound A): 75%; apparent intrinsic clearance ratio ([1]; ratio 100/A): 0.57; stability in Human CYP3A4 Supersomes relative to Compound A ([1]; relative to Compound A): more stable
		0.34 ± 0.00 µL/min/pmol	20.6 min	[2H]C([2H])([2H])C(c1cc(C(F)(F)F)c(NC(=O)c2c[nH]c3ccccc3c2=O)cc1O)(C([2H])([2H])[2H])C([2H])([2H])[2H] [Compound 120, N-(5-hydroxy-4-(2-(methyl-d3)propan-2-yl-1,1,1,3,3,3-d6)-2-(trifluoromethyl)phenyl)-4-oxo-1,4-dihydroquinoline-3-carboxamide]	average increase in t1/2 ([1]; Compound 120 relative to Compound B): 42%; apparent intrinsic clearance ratio ([1]; ratio 120/B): 0.71; stability in Human CYP3A4 Supersomes relative to Compound B ([1]; relative to Compound B): more stable
